Measured values taken from ChEMBL document CHEMBL1275409, “Antimicrobial-resistant pathogens in intensive care units in Canada: results of the Canadian National Intensive Care Unit (CAN-ICU) study, 2005-2006” (2008).

Legend:
Format in all cases: functional
Staphylococcus aureus [1] = experiment: Antimicrobial activity against methicillin-resistant Staphylococcus aureus isolated from ICU patient blood assessed as resistant isolates by broth microdilution method
[2] = tested on: Staphylococcus epidermidis; experiment: Antimicrobial activity against methicillin-resistant Staphylococcus epidermidis isolated from ICU patient urine assessed as resistant isolates by broth microdilution method
Staphylococcus aureus [3] = experiment: Antimicrobial activity against methicillin-susceptible Staphylococcus aureus isolated from ICU patient blood assessed as resistant isolates by broth microdilution method
Staphylococcus aureus [4] = experiment: Antimicrobial activity against methicillin-susceptible Staphylococcus aureus assessed as resistant isolates by broth microdilution method
Streptococcus pneumoniae [5] = experiment: Antimicrobial activity against penicillin-resistant Streptococcus pneumoniae assessed as resistant isolates by broth microdilution method
Haemophilus influenzae [6] = experiment: Antimicrobial activity against Haemophilus influenzae isolated from ICU patient blood assessed as resistant isolates by broth microdilution method
Klebsiella pneumoniae [7] = experiment: Antimicrobial activity against ESBL producing Klebsiella pneumoniae isolated from ICU patient urine assessed as resistant isolates by broth microdilution method
Staphylococcus aureus [8] = experiment: Antimicrobial activity against methicillin-resistant Staphylococcus aureus assessed as resistant isolates by broth microdilution method
Pseudomonas aeruginosa [9] = experiment: Antimicrobial activity against carbapenem-resistant Pseudomonas aeruginosa assessed as resistant isolates by broth microdilution method
Haemophilus influenzae [10] = experiment: Antimicrobial activity against Haemophilus influenzae isolated from ICU patient wound assessed as resistant isolates by broth microdilution method
Streptococcus pneumoniae [11] = experiment: Antimicrobial activity against penicillin-resistant Streptococcus pneumoniae isolated from ICU patient blood assessed as resistant isolates by broth microdilution method
Klebsiella pneumoniae [12] = experiment: Antimicrobial activity against ESBL producing Klebsiella pneumoniae isolated from ICU patient wound assessed as resistant isolates by broth microdilution method
[13] = tested on: Staphylococcus epidermidis; experiment: Antimicrobial activity against methicillin-resistant Staphylococcus epidermidis assessed as resistant isolates by broth microdilution method
Staphylococcus aureus [14] = experiment: Antimicrobial activity against methicillin-susceptible Staphylococcus aureus isolated from ICU patient respiratory tract assessed as resistant isolates by broth microdilution method
Pseudomonas aeruginosa [15] = experiment: Antimicrobial activity against carbapenem-resistant Pseudomonas aeruginosa isolated from ICU patient blood assessed as resistant isolates by broth microdilution method
[16] = tested on: Staphylococcus epidermidis; experiment: Antimicrobial activity against methicillin-resistant Staphylococcus epidermidis isolated from ICU patient blood assessed as resistant isolates by broth microdilution method
Haemophilus influenzae [17] = experiment: Antimicrobial activity against Haemophilus influenzae isolated from ICU patient respiratory tract assessed as resistant isolates by broth microdilution method
Staphylococcus aureus [18] = experiment: Antimicrobial activity against methicillin-resistant Staphylococcus aureus isolated from ICU patient urine assessed as resistant isolates by broth microdilution method
Escherichia coli [19] = experiment: Antimicrobial activity against CTX-M ESBL producing Escherichia coli isolated from ICU patient blood assessed as resistant isolates by broth microdilution method
Streptococcus pneumoniae [20] = experiment: Antimicrobial activity against penicillin-resistant Streptococcus pneumoniae isolated from ICU patient wound assessed as resistant isolates by broth microdilution method
[21] = tested on: Staphylococcus epidermidis; experiment: Antimicrobial activity against methicillin-susceptible Staphylococcus epidermidis isolated from ICU patient blood assessed as resistant isolates by broth microdilution method
Staphylococcus aureus [22] = experiment: Antimicrobial activity against methicillin-resistant Staphylococcus aureus isolated from ICU patient respiratory tract assessed as resistant isolates by broth microdilution method
[23] = tested on: Staphylococcus epidermidis; experiment: Antimicrobial activity against methicillin-susceptible Staphylococcus epidermidis isolated from ICU patient urine assessed as resistant isolates by broth microdilution method
[24] = tested on: Staphylococcus epidermidis; experiment: Antimicrobial activity against methicillin-susceptible Staphylococcus epidermidis assessed as resistant isolates by broth microdilution method
[25] = tested on: Staphylococcus epidermidis; experiment: Antimicrobial activity against methicillin-susceptible Staphylococcus epidermidis isolated from ICU patient wound assessed as resistant isolates by broth microdilution method
Pseudomonas aeruginosa [26] = experiment: Antimicrobial activity against carbapenem-resistant Pseudomonas aeruginosa isolated from ICU patient wound assessed as resistant isolates by broth microdilution method
Streptococcus pneumoniae [27] = experiment: Antimicrobial activity against penicillin-resistant Streptococcus pneumoniae isolated from ICU patient respiratory tract assessed as resistant isolates by broth microdilution method
Haemophilus influenzae [28] = experiment: Antimicrobial activity against Haemophilus influenzae assessed as resistant isolates by broth microdilution method
[29] = tested on: Staphylococcus epidermidis; experiment: Antimicrobial activity against methicillin-resistant Staphylococcus epidermidis isolated from ICU patient wound assessed as resistant isolates by broth microdilution method
Staphylococcus aureus [30] = experiment: Antimicrobial activity against methicillin-susceptible Staphylococcus aureus isolated from ICU patient wound assessed as resistant isolates by broth microdilution method
Staphylococcus aureus [31] = experiment: Antimicrobial activity against methicillin-susceptible Staphylococcus aureus isolated from ICU patient urine assessed as resistant isolates by broth microdilution method
Escherichia coli [32] = experiment: Antimicrobial activity against CTX-M ESBL producing Escherichia coli isolated from ICU patient urine assessed as resistant isolates by broth microdilution method
[33] = tested on: Staphylococcus epidermidis; experiment: Antimicrobial activity against methicillin-susceptible Staphylococcus epidermidis isolated from ICU patient respiratory tract assessed as resistant isolates by broth microdilution method
Staphylococcus aureus [34] = experiment: Antimicrobial activity against methicillin-resistant Staphylococcus aureus isolated from ICU patient wound assessed as resistant isolates by broth microdilution method
Pseudomonas aeruginosa [35] = experiment: Antimicrobial activity against carbapenem-resistant Pseudomonas aeruginosa isolated from ICU patient urine assessed as resistant isolates by broth microdilution method
Klebsiella pneumoniae [36] = experiment: Antimicrobial activity against ESBL producing Klebsiella pneumoniae assessed as resistant isolates by broth microdilution method
Escherichia coli [37] = experiment: Antimicrobial activity against CTX-M ESBL producing Escherichia coli isolated from ICU patient respiratory tract assessed as resistant isolates by broth microdilution method
Pseudomonas aeruginosa [38] = experiment: Antimicrobial activity against carbapenem-resistant Pseudomonas aeruginosa isolated from ICU patient respiratory tract assessed as resistant isolates by broth microdilution method
Escherichia coli [39] = experiment: Antimicrobial activity against CTX-M ESBL producing Escherichia coli assessed as resistant isolates by broth microdilution method
Klebsiella pneumoniae [40] = experiment: Antimicrobial activity against ESBL producing Klebsiella pneumoniae isolated from ICU patient blood assessed as resistant isolates by broth microdilution method
Klebsiella pneumoniae [41] = experiment: Antimicrobial activity against ESBL producing Klebsiella pneumoniae isolated from ICU patient respiratory tract assessed as resistant isolates by broth microdilution method
Escherichia coli [42] = experiment: Antimicrobial activity against CTX-M ESBL producing Escherichia coli isolated from ICU patient wound assessed as resistant isolates by broth microdilution method
Enterobacter cloacae [43] = experiment: Antimicrobial activity against carbapenem-resistant Enterobacter cloacae assessed as resistant isolates by broth microdilution method
Enterobacter cloacae [44] = experiment: Antimicrobial activity against carbapenem-resistant Enterobacter cloacae isolated from ICU patient urine assessed as resistant isolates by broth microdilution method
Enterobacter cloacae [45] = experiment: Antimicrobial activity against carbapenem-resistant Enterobacter cloacae isolated from ICU patient blood assessed as resistant isolates by broth microdilution method
Enterobacter cloacae [46] = experiment: Antimicrobial activity against carbapenem-resistant Enterobacter cloacae isolated from ICU patient wound assessed as resistant isolates by broth microdilution method
Enterobacter cloacae [47] = experiment: Antimicrobial activity against carbapenem-resistant Enterobacter cloacae isolated from ICU patient respiratory tract assessed as resistant isolates by broth microdilution method
Enterococcus sp. [48] = experiment: Antimicrobial activity against vancomycin-resistant Enterococcus sp. isolated from ICU patient wound assessed as resistant isolates by broth microdilution method
Enterococcus sp. [49] = experiment: Antimicrobial activity against vancomycin-resistant Enterococcus sp. isolated from ICU patient respiratory tract assessed as resistant isolates by broth microdilution method
Enterococcus sp. [50] = experiment: Antimicrobial activity against vancomycin-resistant Enterococcus sp. assessed as resistant isolates by broth microdilution method
Enterococcus sp. [51] = experiment: Antimicrobial activity against vancomycin-resistant Enterococcus sp. isolated from ICU patient blood assessed as resistant isolates by broth microdilution method
Enterococcus sp. [52] = experiment: Antimicrobial activity against vancomycin-resistant Enterococcus sp. isolated from ICU patient urine assessed as resistant isolates by broth microdilution method

CO/N=C(\C(=O)N[C@@H]1C(=O)N2C(C(=O)[O-])=C(C[N+]3(C)CCCC3)CS[C@H]12)c1csc(N)n1
Activity (Staphylococcus aureus [1]): 100%
Activity [2]: 100%
Activity (Staphylococcus aureus [3]): 0%
Activity (Staphylococcus aureus [4]): 0%
Activity (Streptococcus pneumoniae [5]): 0%
Activity (Haemophilus influenzae [6]): 0%
Activity (Klebsiella pneumoniae [7]): 17.8%
Activity (Staphylococcus aureus [8]): 100%
Activity (Pseudomonas aeruginosa [9]): 0%
Activity (Haemophilus influenzae [10]): 0%
Activity (Streptococcus pneumoniae [11]): 0%
Activity (Klebsiella pneumoniae [12]): 18.9%
Activity [13]: 100%
Activity (Staphylococcus aureus [14]): 0%
Activity (Pseudomonas aeruginosa [15]): 0%
Activity [16]: 100%
Activity (Haemophilus influenzae [17]): 0%
Activity (Staphylococcus aureus [18]): 100%
Activity (Escherichia coli [19]): 1.4%
Activity (Streptococcus pneumoniae [20]): 0%
Activity [21]: 8.9%
Activity (Staphylococcus aureus [22]): 100%
Activity [23]: 20%
Activity [24]: 16.3%
Activity [25]: 33.3%
Activity (Pseudomonas aeruginosa [26]): 0%
Activity (Streptococcus pneumoniae [27]): 0%
Activity (Haemophilus influenzae [28]): 0%
Activity [29]: 100%
Activity (Staphylococcus aureus [30]): 0%
Activity (Staphylococcus aureus [31]): 0%
Activity (Escherichia coli [32]): 0.4%
Activity [33]: 0%
Activity (Staphylococcus aureus [34]): 100%
Activity (Pseudomonas aeruginosa [35]): 0%
Activity (Klebsiella pneumoniae [36]): 10.2%
Activity (Escherichia coli [37]): 0.8%
Activity (Pseudomonas aeruginosa [38]): 0%
Activity (Escherichia coli [39]): 0.7%
Activity (Klebsiella pneumoniae [40]): 9.1%
Activity (Klebsiella pneumoniae [41]): 7.6%

NCC[C@H](O)C(=O)N[C@@H]1C[C@H](N)[C@@H](O[C@H]2O[C@H](CN)[C@@H](O)[C@H](O)[C@H]2O)[C@H](O)[C@H]1O[C@H]1O[C@H](CO)[C@@H](O)[C@H](N)[C@H]1O [AMIKACIN]
Activity (Escherichia coli [42]): 0%
Activity (Klebsiella pneumoniae [7]): 6.7%
Activity (Pseudomonas aeruginosa [9]): 0%
Activity (Enterobacter cloacae [43]): 0%
Activity (Klebsiella pneumoniae [12]): 1.9%
Activity (Pseudomonas aeruginosa [15]): 0%
Activity (Enterobacter cloacae [44]): 0%
Activity (Escherichia coli [19]): 0%
Activity (Pseudomonas aeruginosa [26]): 0%
Activity (Enterobacter cloacae [45]): 0%
Activity (Escherichia coli [32]): 0%
Activity (Pseudomonas aeruginosa [35]): 0%
Activity (Klebsiella pneumoniae [36]): 2.6%
Activity (Escherichia coli [37]): 0%
Activity (Pseudomonas aeruginosa [38]): 0%
Activity (Escherichia coli [39]): 0%
Activity (Enterobacter cloacae [46]): 0%
Activity (Klebsiella pneumoniae [40]): 0%
Activity (Klebsiella pneumoniae [41]): 2.4%
Activity (Enterobacter cloacae [47]): 0%

O=C(O)c1cn(C2CC2)c2cc(N3CCNCC3)c(F)cc2c1=O [CIPROFLOXACIN]
Activity [2]: 100%
Activity (Staphylococcus aureus [3]): 6.9%
Activity (Escherichia coli [42]): 24.1%
Activity (Enterococcus sp. [48]): 50%
Activity (Streptococcus pneumoniae [5]): 2.1%
Activity (Haemophilus influenzae [6]): 0%
Activity (Klebsiella pneumoniae [7]): 37.8%
Activity (Pseudomonas aeruginosa [9]): 4%
Activity (Haemophilus influenzae [10]): 0%
Activity (Streptococcus pneumoniae [11]): 0%
Activity (Klebsiella pneumoniae [12]): 28.3%
Activity [13]: 100%
Activity (Staphylococcus aureus [14]): 7.5%
Activity (Pseudomonas aeruginosa [15]): 3.9%
Activity (Enterococcus sp. [49]): 46.7%
Activity [16]: 100%
Activity (Haemophilus influenzae [17]): 0%
Activity (Staphylococcus aureus [18]): 100%
Activity (Escherichia coli [19]): 23.3%
Activity (Streptococcus pneumoniae [20]): 0%
Activity [21]: 44.6%
Activity [23]: 80%
Activity [24]: 54.7%
Activity [25]: 70.8%
Activity (Pseudomonas aeruginosa [26]): 11.5%
Activity (Streptococcus pneumoniae [27]): 2.6%
Activity (Haemophilus influenzae [28]): 0%
Activity [29]: 100%
Activity (Staphylococcus aureus [30]): 8%
Activity (Staphylococcus aureus [31]): 20%
Activity (Enterococcus sp. [50]): 53.4%
Activity (Escherichia coli [32]): 19.8%
Activity [33]: 100%
Activity (Staphylococcus aureus [34]): 92.6%
Activity (Pseudomonas aeruginosa [35]): 0%
Activity (Klebsiella pneumoniae [36]): 23.8%
Activity (Escherichia coli [37]): 21.3%
Activity (Pseudomonas aeruginosa [38]): 4.1%
Activity (Escherichia coli [39]): 21.1%
Activity (Enterococcus sp. [51]): 58.1%
Activity (Klebsiella pneumoniae [40]): 24.2%
Activity (Enterococcus sp. [52]): 54.7%
Activity (Klebsiella pneumoniae [41]): 20.8%

CN(C)c1cc(NC(=O)CNC(C)(C)C)c(O)c2c1C[C@H]1C[C@H]3[C@H](N(C)C)C(O)=C(C(N)=O)C(=O)[C@@]3(O)C(O)=C1C2=O [TIGECYCLINE]
Activity (Staphylococcus aureus [1]): 0%
Activity (Staphylococcus aureus [3]): 0%
Activity (Staphylococcus aureus [4]): 0%
Activity (Escherichia coli [42]): 0%
Activity (Enterococcus sp. [48]): 0%
Activity (Staphylococcus aureus [8]): 0%
Activity (Pseudomonas aeruginosa [9]): 0.4%
Activity (Enterobacter cloacae [43]): 0.6%
Activity (Staphylococcus aureus [14]): 0%
Activity (Pseudomonas aeruginosa [15]): 0%
Activity (Enterococcus sp. [49]): 0%
Activity (Enterobacter cloacae [44]): 6.3%
Activity (Staphylococcus aureus [18]): 0%
Activity (Escherichia coli [19]): 0%
Activity (Staphylococcus aureus [22]): 0%
Activity (Pseudomonas aeruginosa [26]): 3.9%
Activity (Staphylococcus aureus [30]): 0%
Activity (Staphylococcus aureus [31]): 0%
Activity (Enterococcus sp. [50]): 0%
Activity (Enterobacter cloacae [45]): 0%
Activity (Escherichia coli [32]): 0%
Activity (Staphylococcus aureus [34]): 0%
Activity (Pseudomonas aeruginosa [35]): 2%
Activity (Escherichia coli [37]): 0%
Activity (Pseudomonas aeruginosa [38]): 0%
Activity (Escherichia coli [39]): 0%
Activity (Enterobacter cloacae [46]): 0%
Activity (Enterococcus sp. [51]): 0%
Activity (Enterococcus sp. [52]): 0%
Activity (Enterobacter cloacae [47]): 0%

GENTAMICIN
Activity (Escherichia coli [42]): 6.9%
Activity (Klebsiella pneumoniae [7]): 22.2%
Activity (Pseudomonas aeruginosa [9]): 0%
Activity (Enterobacter cloacae [43]): 3%
Activity (Klebsiella pneumoniae [12]): 18.9%
Activity (Pseudomonas aeruginosa [15]): 0%
Activity (Enterobacter cloacae [44]): 6.3%
Activity (Escherichia coli [19]): 6.9%
Activity (Pseudomonas aeruginosa [26]): 0%
Activity (Enterobacter cloacae [45]): 8.3%
Activity (Escherichia coli [32]): 1.1%
Activity (Pseudomonas aeruginosa [35]): 0%
Activity (Klebsiella pneumoniae [36]): 15.2%
Activity (Escherichia coli [37]): 3.3%
Activity (Pseudomonas aeruginosa [38]): 0%
Activity (Escherichia coli [39]): 3%
Activity (Enterobacter cloacae [46]): 0%
Activity (Klebsiella pneumoniae [40]): 9.1%
Activity (Klebsiella pneumoniae [41]): 14.2%
Activity (Enterobacter cloacae [47]): 1.9%
